Where two headings read alike, the source gives them in different places.
Experiments:
[1] = tested on: M. sexta brush border membrane vesicles (BBMV); assay: Oligomerization of Cry1Ab with brush border membrane vesicles in the presence of Hsp90, Western blot; format: biochemical
Method: Oligomerization of Cry1Ab. Brush border membrane vesicles (BBMV) were prepared using M. sexta midgut tissues from third instar larvae by the magnesium precipitation method without protease inhibitors^21 and suspended in 50 mM Na2CO3, pH 9, and stored at −70° C. until used. The BBMV protein concentrations were determined with the Lowry DC protein assay (BioRad, Hercules, Calif.) using bovine serum albumin as a standard. Fifteen μg or 30 μg of Hsp90 were incubated with 1 μg Cry1Ab toxin or protoxin in the presence of Hsp90 buffer. Control samples contained Cry1Ab proteins without Hsp90. Cry1Ab oligomerization was analyzed after incubation of 1 μg of Cry1Ab toxin or protoxin with 10 μg of BBMV protein for 1 h at 37° C. in a total volume of […] alkaline buffer, pH 10.5. BBMV were recovered by a 30 min centrifugation at 60,000 rpm at 4° C. The pellet was washed once with 100 μl of alkaline buffer by centrifugation, and suspended in 60 μl of the same buffer. Laemmli sample buffer 4X was added and the sample was incubated three min at 50° C. Samples were separated in 8% SDS-PAGE, electro transferred to PVDF membrane and Cry1Ab proteins were detected by Westernblot as described above.

Hsp70 = assay: ELISA binding assay of Hsp70 to Cry toxins; parameters: species or system Plutella xylostella; details: coated protoxin, different concentrations of Hsp70, FIG. 5
Chain of Hsp70 (as listed by the source): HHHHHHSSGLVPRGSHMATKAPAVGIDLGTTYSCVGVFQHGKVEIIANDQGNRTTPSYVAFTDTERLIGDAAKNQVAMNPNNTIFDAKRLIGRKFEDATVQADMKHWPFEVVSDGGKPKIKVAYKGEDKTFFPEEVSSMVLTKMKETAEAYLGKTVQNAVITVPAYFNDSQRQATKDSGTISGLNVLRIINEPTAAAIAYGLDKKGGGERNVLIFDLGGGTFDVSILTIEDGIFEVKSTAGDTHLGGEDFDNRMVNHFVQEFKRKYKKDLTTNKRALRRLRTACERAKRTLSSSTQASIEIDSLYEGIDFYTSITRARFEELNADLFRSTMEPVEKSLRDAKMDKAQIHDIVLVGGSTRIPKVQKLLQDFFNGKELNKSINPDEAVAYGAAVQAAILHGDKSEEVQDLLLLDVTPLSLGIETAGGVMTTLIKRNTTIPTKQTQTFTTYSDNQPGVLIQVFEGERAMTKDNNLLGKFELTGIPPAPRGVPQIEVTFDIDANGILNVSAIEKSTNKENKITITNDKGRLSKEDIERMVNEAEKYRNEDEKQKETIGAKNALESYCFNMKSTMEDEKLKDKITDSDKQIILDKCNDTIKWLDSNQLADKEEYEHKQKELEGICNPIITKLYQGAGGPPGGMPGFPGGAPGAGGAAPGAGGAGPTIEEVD
Method: (§1) The binding of Hsp90 or Hsp70 to Cry1Ab and Cry1AbMod protoxins was analyzed by ELISA binding assays. […] More specifically, 50 μl of 40 nM of each protoxin in binding buffer (100 mM carbonate pH 9.5) was used to coat ELISA 96 well plates. ELISA plates were incubated overnight at 4° C. After removing the protoxin solution, the plate was blocked with blocking-buffer (1% BSA in PBS 1X) for 1 hr at room temperature. […] The plate was washed three times with washing buffer (PBS 1X) and then 50 μl of a 1/10,000 dilution of anti-polyHistidine-Peroxidase conjugate (Sigma-Aldrich) was added to each well and incubated for 1 hr at 30° C. The reaction was developed with 50 μl of ortophenylenediamine in a substrate buffer (100 mM K3PO4; pH 5) in a final concentration of 1 mg/ml and […] of peroxide oxide. The reaction was stopped by adding 25 μl of HCl, 6N. The plates were read on microtiter plate reader at OD 490 nm.
(§2) Data represent means of 8 wells and each experiment was repeated two times. The statistical calculations (mean and standard deviation) and graphics were performed using the Microsoft Excel Program.

[2] = tested on: Plutella xylostella larvae; details: soluble protoxin; taken from reference 16; cited from earlier work
Hsp90 = assay: ELISA binding assay of Hsp90 to Cry toxins; parameters: species or system Plutella xylostella; details: for binding of Hsp90 to toxin (ELISA): coated protoxin, serial dilutions of Hsp90, FIG. 4A-E
Chain of Hsp90 (as listed by the source): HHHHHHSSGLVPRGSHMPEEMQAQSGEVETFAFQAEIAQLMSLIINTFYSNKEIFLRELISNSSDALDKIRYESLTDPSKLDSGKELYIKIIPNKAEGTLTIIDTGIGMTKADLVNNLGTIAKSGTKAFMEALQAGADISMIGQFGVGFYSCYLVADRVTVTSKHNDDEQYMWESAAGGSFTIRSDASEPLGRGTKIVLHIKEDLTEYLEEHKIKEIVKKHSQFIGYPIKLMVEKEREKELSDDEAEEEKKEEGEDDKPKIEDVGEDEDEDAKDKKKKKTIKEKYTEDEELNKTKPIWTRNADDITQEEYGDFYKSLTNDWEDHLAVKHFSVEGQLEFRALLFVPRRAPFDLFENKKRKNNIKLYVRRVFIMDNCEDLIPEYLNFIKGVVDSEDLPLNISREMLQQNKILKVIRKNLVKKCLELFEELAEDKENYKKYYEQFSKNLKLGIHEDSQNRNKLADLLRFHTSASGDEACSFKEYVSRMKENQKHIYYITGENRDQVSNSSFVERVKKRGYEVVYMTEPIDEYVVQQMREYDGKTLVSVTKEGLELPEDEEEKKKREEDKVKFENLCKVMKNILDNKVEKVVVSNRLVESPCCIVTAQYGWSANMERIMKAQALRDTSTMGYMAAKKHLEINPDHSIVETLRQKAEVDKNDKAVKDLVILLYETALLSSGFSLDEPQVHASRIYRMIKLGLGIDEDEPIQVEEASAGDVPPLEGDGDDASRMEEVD
Method: as §1, §2

[3] = tested on: Plutella xylostella larvae; format: in vivo; details: for effect of Hsp90 on toxicity: protoxin at about 10% mortality, increasing Hsp90, FIG. 1
Method: The hsp90 and hsp70 genes from the lepidopteran insect Plutella xylostella and the GroEL gene from Alcaligenes faecalis were cloned into an expression vector for production in E. coli cells. P. xylostella is a pest of cruciferous crops worldwide, is susceptible to Cry1A toxins and has evolved resistance to Cry1Ac and Cry1Ab in field conditions^18. To determine the effect of Hsp90, Hsp70 or GroEL on Cry1Ab and Cry1Ac toxicity, bioassays were performed against P. xylostella larvae using a protoxin concentration that would produce around 10% mortality in the presence of increasing amounts of Hsp90, Hsp70 or GroEL.
Bioassays were performed with 24 third instar larvae of P. xylostella using 24 wells plates. Larval diet was surface contaminated with different concentrations of Cry1A protoxin plus Hsp90 or Hsp70 or protoxin alone without any chaperone. The samples containing protoxin and Hsp90 were previously incubated for 30 min at 37° C. in Hsp90 buffer (1 mM Mg, 1 mMATP, in PBS1X). Each experiment was performed in triplicate (72 larvae per treatment). Mortality was assessed after 7 days. The statistical calculations (mean and standard deviation) and graphics were performed using the Microsoft Excel Program. Negative control diet was surface contaminated with the highest Hsp90 concentration without Cry1A protoxin to test the possible toxic effect of the protein or the buffer itself.
In the case where the LC50 was calculated, increasing concentrations of protoxin plus Hsp90 (in the protein relation indicated in the table) was used to surface contaminate diet in 24-well plates. These experiments were performed in triplicate. Mortality was assessed after 7 days and the effective dose was calculated using Probit analysis (Polo-PC LeOra Software).

[4] = excess of 500 μg per well of Hsp90

Row | Substance | yield of the 250 kDa Cry1Ab oligomer ([1]; from Cry1Ab protoxin) | yield of the 250 kDa Cry1Ab oligomer ([1]; from Cry1Ab toxin) | binding of Hsp70 to toxin (ELISA) (Hsp70) | LC50 [2] [ng/well] | binding of Hsp90 to toxin (ELISA) (Hsp90) | mortality ([3]; 200 ng per well of Hsp90) [%] | mortality [3, 4] [%] | effect of Hsp90 on toxicity [3] | binding of Hsp90 to Cry1Ac (Hsp90; 100 nM Hsp90, absence of ATP (FIG. 4F lane 2)) | mortality ([3]; 100 ng per well of Hsp70) [%] | mortality ([3]; GroEL 100 ng per well) [%] | mortality ([3]; excess of 200 μg per well of GroEL) [%] | mortality ([3]; excess of 200 μg per well of Hsp70) [%] | effect of GroEL on toxicity ([3]; increasing GroEL, FIG. 3) | effect of Hsp70 on toxicity ([3]; increasing Hsp70, FIG. 2)
1 | Cry1Ab | significantly enhanced | significantly enhanced | bound | 4.69 | bound | 80 | 100 | enhanced in an Hsp90 concentration dependent manner | – | – | – | – | – | – | –
2 | Cry1Ac | – | – | bound | 0.71 | bound | 80 | 100 | enhanced in an Hsp90 concentration dependent manner | significantly reduced | 80 | 80 | 100 | 100 | enhanced in concentration dependent manner | enhanced in an Hsp70 concentration dependent manner
